According to patent US10577365B2, “Derivatives of quinoline as inhibitors of DYRK1A and/or DYRK1B kinases” (Felicitex Therapeutics, Inc., priority 2016, dated 2020):
Structures can show the parent of a compound that is named as a salt.

Columns and labels:
[1] = target: T1, DYRK1A (Homo sapiens, UniProt Q13627); assay: DYRK1A in vitro kinase assay (ADP-Glo); assay type: biochemical; settings: ATP 70 μM (Km), substrate 3 μM, enzyme 2 nM or 0.7 nM, 30 min, rt
T1 construct: purchased Carna Bioscence (Carna Biosciences) 04-130

[2] = target: T2, DYRK1B (Homo sapiens, UniProt Q9Y463); assay: DYRK1B in vitro kinase assay (ADP-Glo); assay type: biochemical; settings: ADP-Glo assay, ATP 15 μM (Km), substrate 7 μM, enzyme 1 nM or 0.3 nM, 1 h, rt; read-out: DYRK1B IC50
T2 construct: purchased Carna Bioscence (Carna Biosciences) 04-131
T2 sequence (Q9Y463 whole entry): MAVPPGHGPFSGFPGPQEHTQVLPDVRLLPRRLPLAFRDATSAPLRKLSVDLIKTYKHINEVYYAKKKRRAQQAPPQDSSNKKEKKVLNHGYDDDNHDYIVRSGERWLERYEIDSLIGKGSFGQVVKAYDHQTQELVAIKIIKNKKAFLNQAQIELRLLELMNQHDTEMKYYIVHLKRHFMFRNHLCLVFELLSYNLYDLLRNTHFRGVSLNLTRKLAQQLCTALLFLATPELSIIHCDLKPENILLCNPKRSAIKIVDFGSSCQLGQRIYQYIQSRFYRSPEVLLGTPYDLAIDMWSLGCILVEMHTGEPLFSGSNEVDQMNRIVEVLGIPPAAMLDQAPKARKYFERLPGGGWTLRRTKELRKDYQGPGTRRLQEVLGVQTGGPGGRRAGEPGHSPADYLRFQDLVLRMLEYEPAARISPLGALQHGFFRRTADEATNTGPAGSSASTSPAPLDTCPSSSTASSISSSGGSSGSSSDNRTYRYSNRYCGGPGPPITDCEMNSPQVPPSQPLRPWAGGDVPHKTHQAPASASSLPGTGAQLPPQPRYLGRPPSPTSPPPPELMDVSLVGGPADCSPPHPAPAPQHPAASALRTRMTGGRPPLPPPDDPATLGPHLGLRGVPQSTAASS

SMILES	IC50 [1]	IC50 [2]
CNC(=O)c1cnc2[nH]cc(-c3ccc4ncc(NCc5cccc(Cl)c5)c(N5CCOCC5)c4c3)c2c1 [Example 56, 3-(3-{[(3-Chlorophenyl)methyl]amino}-4-(morpholin-4-yl)quinolin-6-yl)-N-methyl-1H-pyrrolo[2,3-b]pyridine-5-carboxamide]	10 to 100 nM	< 10 nM
N[C@H]1CC[C@H](Nc2c([N+](=O)[O-])cnc3ccc(-c4c[nH]c5ncc(C(=O)NCc6cccnc6)cc45)cc23)CC1 [Example 59, 3-{4-[(4-Aminocyclohexyl)amino]-3-nitroquinolin-6-yl}-N-(pyridin-3-ylmethyl)-1H-pyrrolo[2,3-b]pyridine-5-carboxamide hydrochloride]	10 to 100 nM	10 to 100 nM
CNC(=O)c1cnc2[nH]cc(-c3cc(F)c4ncccc4c3)c2c1 [Example 30, 3-(8-Fluoroquinolin-6-yl)-N-methyl-1H-pyrrolo[2,3-b]pyridine-5-carboxamide]	< 10 nM	< 10 nM
O=C(NCc1cccnc1)c1cnc2[nH]cc(-c3ccc4ncc(NCC5CCOCC5)cc4c3)c2c1 [Example 63, 3-{3-[(Oxan-4-ylmethyl)amino]quinolin-6-yl}-N-(pyridin-3-ylmethyl)-1H-pyrrolo[2,3-b]pyridine-5-carboxamide]	< 10 nM	< 10 nM
C=CCN(C)C(=O)c1cnc2[nH]cc(-c3cc(Cl)c4ncccc4c3)c2c1 [Example 28, 3-(8-Chloroquinolin-6-yl)-N-methyl-N-(prop-2-en-1-yl)-1H-pyrrolo[2,3-b]pyridine-5-carboxamide]	10 to 100 nM	< 10 nM
CNC(=O)c1cnc2[nH]cc(-c3ccc4ncc(N)c(N5CCC[C@H](N)C5)c4c3)c2c1 [Example 54, 3-{3-Amino-4-[(3S)-3-aminopiperidin-1-yl]quinolin-6-yl}-N-methyl-1H-pyrrolo[2,3-b]pyridine-5-carboxamide hydrochloride]	< 10 nM	< 10 nM
c1cnc2[nH]cc(-c3ccc4nccc(-c5ccncc5)c4c3)c2c1 [Example 7, 4-(Pyridin-4-yl)-6-{1H-pyrrolo[2,3-b]pyridin-3-yl}quinoline]	< 10 nM	< 10 nM
CNC(=O)c1cnc2[nH]cc(-c3cc(F)c4nccc(-c5cnccc5C)c4c3)c2c1 [Example 44, N-Methyl-3-[8-fluoro-4-(4-methylpyridin-3-yl)quinolin-6-yl]-1H-pyrrolo[2,3-b]pyridine-5-carboxamide]	< 10 nM	< 10 nM
CNC(=O)c1cnc2[nH]cc(-c3cc(F)c4nccc(-c5cccnc5)c4c3)c2c1 [Example 39, 3-[8-Fluoro-4-(pyridin-3-yl)quinolin-6-yl]-N-methyl-1H-pyrrolo[2,3-b]pyridine-5-carboxamide]	< 10 nM	< 10 nM
